Converted amounts (≈) assume the structure as drawn. Read-outs that look alike come from different tables or passages of the source.
Key:
Format in all cases: cell-based
[1] = test system: Mycoplasma gallisepticum T-7-T (wild strain, tylosin-resistant); assay: Anti-mycoplasma activity in vitro (MIC, broth dilution), strain T-7-T; conditions: Mg T-7-T, 37° C., 7 days
Procedure: (§1) (1) Anti-mycoplasma activity test in vitro
(§2) MIC values of each of Tropolones were measured on the following strains according to the following method.
(§3) (a) Mycoplasma gallisepticum
T-7-T (wild strain, tylosin-resistant)
(§4) Medium: Chick PPLO broth supplemented with 20% equine serum (Eiken Kagaku Co., Ltd.)
(§5) Method: Broth dilution method
(§6) Inoculum: Culture incubated at 37° C. for 24-48 hr which is diluted with broth to 10^6 CCU/ml immediately before the use.
(§7) To 1.6 ml of the broth is added 0.2 ml of an agent which has been subjected to 2-fold dilution and then added 0.2 ml of inoculum, which is incubated at 37° C. for 7 days.

[2] = test system: Mycoplasma gallisepticum S6 (standard strain); assay: Anti-mycoplasma activity in vitro (MIC, broth dilution), strain S6; conditions: Mg S6, 37° C., 7 days
Procedure: as §1, §2, §3, §4, §5, §6, §7

[3] = test system: Mycoplasma gallisepticum MR-1 (wild strain, tylosin-resistant); assay: Anti-mycoplasma activity in vitro (MIC, broth dilution), strain MR-1; conditions: Mg MR-1, 37° C., 7 days
Procedure: as §1, §2, §3
MR-1 (wild strain, tylosin-resistant)
as §4, §5, §6, §7

[4] = test system: Mycoplasma hyopneumoniae ST-11 (standard strain); assay: Anti-mycoplasma activity in vitro (MIC, broth dilution), strain ST-11; conditions: Mh ST-11
Procedure: as §1, §2
(b) Mycoplasma hyopneumoniae
Strain: ST-11 (standard strain)
Medium: 850 ml of Hanks' solution supplemented with 0.5% lactoalbumin, 50 ml of 25% yeast, 100 ml of equine serum and 4-6 ml of 0.5% phenol red (pH 7.4-7.6)
as §5
Inoculum: Culture which is incubated for 3-4 days and diluted 10 times with the broth if color of the broth becomes yellow then. If it needs over 4 days until color of the broth becomes yellow, it is further subcultured. This is diluted 10 times with the broth to give inoculum.
Assay is done in the same manner as in the above (a).

[5] = Mycoplasmoides gallisepticum, 168 h, read-out: MIC
[6] = Mesomycoplasma hyopneumoniae, read-out: MIC

Compound	MIC [1, 5]	MIC [2, 5]	MIC [3, 5]	MIC [4, 6]	MIC [1]	MIC [2]	MIC [3]	MIC [4]
O=c1c(O)ccccc1O [Compound 27, 7-Hydroxytropolone]	12.5 µg/mL (≈ 90.5 µM)	12.5 µg/mL (≈ 90.5 µM)	12.5 µg/mL (≈ 90.5 µM)	12.5 µg/mL (≈ 90.5 µM)				
Cc1ccccc(O)c1=O [Compound 28, 7-Methyltropolone]	0.39 µg/mL (≈ 2.86 µM)	0.1 µg/mL (≈ 0.734 µM)	0.2 µg/mL (≈ 1.47 µM)	0.1 µg/mL (≈ 0.734 µM)				
Tropolone cobalt complex [Compound 3]					1.56 µg/mL	1.56 µg/mL	3.13 µg/mL	0.78 µg/mL
Tropolone iron complex [Compound 1]					0.78 µg/mL	0.78 µg/mL	0.56 µg/mL	0.39 µg/mL
Tropolone zinc salt [Compound 7]					3.13 µg/mL	1.56 µg/mL	3.13 µg/mL	0.78 µg/mL

Source: patent US4950686A, “Anti-mycoplasma agent” (Shionogi & Co., Ltd., priority 1986, dated 1990)
